Results taken from patent publication US20210379046A1, “Methods of Treating Diseases Using Kinase Modulators” (Memorial Sloan Kettering Cancer Center, priority 2018, published 2021).
“Also recorded” adds a separate entry of the source.

Legend:
Format in all cases: cell-based, human
LC-2/ad cells = experiment: Flow cytometry of cell surface HLA on LC-2/ad cells; settings: 72 hrs
Description: If adherent cells, they were seeded one day before treatment.

TPC1 cells = experiment: Mass spectrometry of eluted HLA class I presented peptides, TPC1 cells
Description: After 72 hrs, cells were harvested, washed, lysed. The lysate was run through an activated Sepharose-CNBr column coupled to the W6/32 antibody to bind HLA-A,B,C from the cell. The peptides bound by those HLAs and captured on the column were then eluted and mass spectrometry was run on those peptides.
Immunopurification affinity columns were prepared as described previously (Bassani-Sternberg et al., 2015, Mol Cell Proteomics 14(3):658-673). In brief, 40 mg of Cyanogen bromide-activated-Sepharose® 4B (Sigma-Aldrich, Cat #C9142) was activated with 1 mM hydrochloric acid (Sigma-Aldrich, Cat #320331) for 30 min. Subsequently, 0.5 mg of W6/32 antibody (BioXCell, BE0079; RRID: AB 1107730) was coupled to sepharose in presence of binding buffer (150 mM sodium chloride, 50 mM sodium bicarbonate, pH 8.3; sodium chloride: Sigma-Aldrich, Cat #S9888, sodium bicarbonate: Sigma-Aldrich, Cat #56014) for at least 2 hours at room temperature. Sepharose was blocked for 1 h with glycine (Sigma-Aldrich, Cat #410225). Columns were equilibrated with PBS for 10 min. […]. Afterwards, cells were lysed in 1 ml 1% CHAPS (Sigma-Aldrich, Cat #C3023) in PBS, supplemented with 1 tablet of protease inhibitors (cOmplete, Cat #11836145001) for 1 hour at 4° C. This lysate was spun down for 1 hour at 20,000 g at 4° C. Supernatant was run over the affinity column through peristaltic pumps at 1 ml/min overnight at 4° C. Affinity columns were washed with PBS for 15 min, run dry, and HLA complexes subsequently eluted three times with 200 μl 1% trifluoracetic acid (TFA, Sigma/Aldrich, Cat #02031). For separation of HLA ligands from their HLA complexes tC18 columns (Sep-Pak tC18 1 cc VacCartridge, 100 mg Sorbent per Cartridge, 37-55 μm Particle Size, Waters, Cat #WAT036820) were prewashed with 80% acetonitrile (ACN, Sigma-Aldrich, Cat #34998) in 0.1% TFA and equilibrated with two washes of 0.1% TFA. Samples were loaded, washed again with 0.1% TFA and eluted in 400 μl 30% ACN in 0.1% TFA. Sample volume was reduced by vacuum centrifugation for mass spectrometry analysis.
Samples were analyzed by a high resolution/high accuracy LC-MS/MS (Lumos Fusion, Thermo Fisher). Peptides were desalted using ZipTips (Sigma Millipore, Cat. #ZTC18S008) according to manufactures instructions and concentrated using vacuum centrifugation prior to being separated using direct loading onto a packedin-emitter C18 column (75 um ID/12 cm, 3 μm particles, Nikkyo Technos Co., Ltd. Japan). The gradient was delivered at 300 nl/min increasing linear from 2% Buffer B (0.1% formic acid in 80% acetonitrile)/98% Buffer A (0.1% formic acid) to 30% Buffer B/70% Buffer A, over 70 minutes. MS and MS/MS were operated at resolutions of 60,000 and 30,000, respectively. Only charge states 1, 2 and 3 were allowed. 1.6 Th was chosen as the isolation window and the collision energy was set at 30%. For MS/MS, the maximum injection time was 100 ms with an AGC of 50,000.
Mass spectrometry data was processed using Byonic software (version 2.7.84, Protein Metrics, PaloAlto, Calif.) through a custom-built computer server equipped with 4 Intel Xeon E5-4620 8-core CPUs operating at 2.2 GHz, and 512 GB physical memory (Exxact Corporation, Freemont, Calif.). Mass accuracy for MS1 was set to 10 ppm and to 20 ppm for MS2, respectively. Digestion specificity was defined as unspecific and only precursors with charges 1, 2, and 3 and up to 2 kDa were allowed. Protein FDR was disabled to allow complete assessment of potential peptide identifications. Oxidization of methionine, N-terminal acetylation, phosphorylation of serine, threonine and tyrosine were set as variable modifications for all samples. All samples were searched against the UniProt Human Reviewed Database (20,349 entries, uniprot.org, downloaded June 2017). […]

[1] = tested on: pSTAT3, pSTAT1 in TPC1 cells; experiment: Western blot of STAT phosphorylation in TPC1 cells; settings: TPC1, 10 nM AST487, 24 hrs
Description: Cells were seeded in a 60 mm dish or 6 well plates. After the appropriate time point, cells were harvested and lysed and protein was quantified by a Lowry assay (Bio-Rad DC Protein Assay; #5000116). Protein levels were normalized and run on SDS PAGE gels (Bio-Rad). Protein was transferred to a nitrocellulose membrane using semi-dry transfer. Membrane was blocked and incubated with respective antibodies. When needed, secondary antibodies with HRP were incubated for 1 hr. Enhanced chemiluminescent substrate for HRP enzymes was used to image protein levels (Thermo-Fischer; #34095).
Cells were seeded in a 60 mm dish or 6 well plates. After the appropriate time point, cells were harvested, lysed in RIPA buffer (Thermo Instruments) and protein concentration was quantified by a Lowry assay (using the Bio-Rad DC Protein Assay; #5000116 on a Spectramax device from Molecular Devices). Protein loading levels were equalized per lane and separated on SDS gels (Bio-Rad). Protein was transferred to a nitrocellulose membrance using semi-dry transfer (BioRad). Membranes were blocked with Omniblock (American Bio) and incubated with respected antibodies. When needed, secondary antibodies with HRP were incubated for 1 hr. Enhanced chemiluminescent substrate for HRP enzymes was used to image protein levels (Thermo-Fischer; #34095) on a ChemiDoc MP imager with Soft Max Pro software (Biorad).

Compound: CCN1CCN(Cc2ccc(NC(=O)Nc3ccc(Oc4cc(NC)ncn4)cc3)cc2C(F)(F)F)CC1 [AST487]
- surface HLA (LC-2/ad cells): only small increases were seen; also recorded: increases in surface HLA
- runs TEIPP peptide was found in (n = 3) (TPC1 cells; ALFSFVTAL (SEQ ID NO: 11)): 0
- runs TEIPP peptide was found in (n = 3) (TPC1 cells; FLGPWPAAS (SEQ ID NO: 12)): 1
- runs TEIPP peptide was found in (n = 3) (TPC1 cells; FLSELQYYL (SEQ ID NO: 13)): 0
- runs TEIPP peptide was found in (n = 3) (TPC1 cells; FLYPFLSHL (SEQ ID NO: 14)): 0
- runs TEIPP peptide was found in (n = 3) (TPC1 cells; ILEYLTAEV (SEQ ID NO: 15)): 0
- runs TEIPP peptide was found in (n = 3) (TPC1 cells; LLALAAGLAV (SEQ ID NO: 16)): 0
- runs TEIPP peptide was found in (n = 3) (TPC1 cells; LLLDVPTAAV (SEQ ID NO: 17)): 0
- runs TEIPP peptide was found in (n = 3) (TPC1 cells; LLLSAEPVPA (SEQ ID NO: 18)): 0
- runs TEIPP peptide was found in (n = 3) (TPC1 cells; LLWGRQLFA (SEQ ID NO: 19)): 0
- runs TEIPP peptide was found in (n = 3) (TPC1 cells; LSEKLERI (SEQ ID NO: 20)): 0
- runs TEIPP peptide was found in (n = 3) (TPC1 cells; LTLLGTLWGA (SEQ ID NO: 21)): 0
- runs TEIPP peptide was found in (n = 3) (TPC1 cells; SVLWLGALGL (SEQ ID NO: 22)): 0
- runs TEIPP peptide was found in (n = 3) (TPC1 cells; TLLGASLPA (SEQ ID NO: 23)): 0
- new peptides (only peptides found in all three runs counted) (TPC1 cells; TPC1, 10 nM AST487 or 100 nM cabozantinib): 458
- unique ligands presented (TPC1 cells; TPC1, 10 nM AST487 or 100 nM cabozantinib, three runs pooled, DMSO 4211): 5274
- increase in unique peptides vs DMSO (TPC1 cells; TPC1, three runs pooled): 25%
- unique HLA ligands detected in all 3 runs (TPC1 cells; TPC1, DMSO 195): 585
- runs TEIPP peptide was found in (n = 3) (TPC1 cells; VIIKPLVWV (SEQ ID NO: 24)): 0
- runs TEIPP peptide was found in (n = 3) (TPC1 cells; VLAVFIKAV (SEQ ID NO: 25)): 0
- runs TEIPP peptide was found in (n = 3) (TPC1 cells; VLLDHLSLA (SEQ ID NO: 26)): 0
- STAT3 phosphorylation [1]: increased significantly; also recorded: increased phosphorylation of STAT3 at 24 hrs
